{"source": "patent US20260232720A1", "about": "“NEW MEDICAL USE OF SEVUPARIN IN THE TREATMENT OF ENDOTOXEMIA” (Modus Therapeutics AB, priority 2023, published 2026)", "key": {"healthy volunteers [1]": {"test_system": "healthy volunteers", "conditions": "for Body temperature / Diastolic blood pressure / Heart rate / NRS feeling sick / Systolic blood pressure: LS Means, IV LPS 1 ng/kg", "source_text": "(§1) A randomized, placebo-controlled study to evaluate the effects of intravenous sevuparin on LPS reactions (first part), and the interaction between subcutaneous enoxaparin and sevuparin on coagulation responses in healthy volunteers (second part), has been performed.\n(§2) Objectives for first part of the clinical study: To evaluate the effect of intarvenous (IV) sevuparin on safety and tolerability and inflammatory responses following an intravenous (IV) LPS challenge.\n(§3) In the first part of the study, sevuparin (or matching placebo) is administered by IV infusion (bolus loading dose followed by continuous infusion over 6 hours); In the second part of the study, sevuparin and enoxaparin are given by subcutaneous injection.\n(§4) The sevuparin dose was as follows in the first part of the study: • Group 1 (sevuparin low dose): loading bolus dose of 0.3 mg/kg bodyweight, followed by IV infusion at 0.08 mg/kg/h; • Group 2 (sevuparin intermediate dose): loading dose of 1 mg/kg bodyweight, followed by IV infusion at 0.25 mg/kg/h; • Group 3 (sevuparin high dose): loading dose of 3 mg/kg bodyweight, followed by IV infusion at 0.75 mg/kg/h.\n(§5) In the first part of the study, 1 ng/kg bodyweight of LPS was administered intravenously.\n(§6) In the first part of the study, a total of 48 male and female healthy volunteers were enrolled and randomized over 4 treatment groups (sevuparin low, intermediate or high dose or matching placebo). Each treatment group consisted of 12 healthy volunteers. All subjects underwent an intravenous LPS challenge.\n(§7) In the first part of the current study, subjects are administered with intravenous LPS 30 min after the start of the infusion of sevuparin on study Day 1. LPS, purified lipopolysaccharide prepared from Escherichia Coli: 113: H10: K negative (U.S. Standard Reference Endotoxin) is used. This LPS batch was manufactured in the US by List Biological Laboratories. All participants received 1 ng/kg E. coli purified LPS, administered as a 2-minute infusion. To ensure that participants stay adequately hydrated, additionally saline (NaCl 0.9%) or glucose/saline was infused (2.5% glucose/0.45% sodium chloride) starting approximately 2 hours before LPS administration at a rate of 750 ml/h, until 6 h afterwards at a rate of 150 ml/h (Hijma et al., 2020). During infusion of study drug or placebo, infused over 6 hours at an infusion rate of 80 mL/h, the infusion rate of glucose/saline was lowered to 80 mL/h.\nEvaluations of systolic and diastolic blood pressure, pulse rate, respiratory rate, and temperature is performed throughout the study. Pulse and blood pressure is taken after 5 minutes in the supine position. Automated oscillometric blood pressures and pulse rate is measured using a Dash 3000,\nSubjective assessment of feeling sick is recorded by the subjects during the first part of the study (IV LPS infusion) on a numeric rating scale (NRS) electronically.\n(§8) Throughout the Figures and tables related to the clinical study test results, the following abbreviations and its definitions are used: • IV LPS Placebo means subjects who have been challenged with intravenous LPS and thereafter received placebo intravenously as described above. • Sevuparin 0.3/0.08 means (sevuparin low dose): loading bolus dose of 0.3 mg/kg bodyweight, followed by 0.08 mg/kg/h intravenously; • Sevuparin 1/0.25 means (sevuparin intermediate dose): loading dose of 1 mg/kg bodyweight, followed by 0.25 mg/kg/h intravenously; • Sevuparin 3/0.75 means (sevuparin high dose): loading dose of 3 mg/kg bodyweight, followed by 0.75 mg/kg/h intravenously."}, "[2]": {"test_system": "inflammatory biomarkers cytokines and C-Reactive Protein (CRP)", "conditions": "for C-Reactive Protein / IL-6 in plasma / IL-8 in plasma / IL-10 in plasma / TNF-α in plasma: LS Means, IV LPS 1 ng/kg", "source_text": "as §1, §2\n(§9) • Leucocyte differential • Cytokines (including IL-6, IL-8, IL-10 and TNF-α) • Flow cytometry (Neutrophils, monocyte subsets, T cells, B cells, NK cells, dendritic cells, including neutrophil extracellular traps) • Explorative biomarkers: acute phase reactants and components measurable in blood, serum and plasma of relevance for septic inflammation may be measured and reported separately.\nas §3, §4, §5, §6, §7\nBlood is collected at time points as shown in Table 1 below for the assessment of cytokines. Venous blood (4 mL) is collected in K2EDTA tubes. Plasma is collected after centrifugation at 2000×g for 20 minutes at room temperature and stored at −80° C., in 3×0.5 ml aliquots until analysis. Samples are analysed by Ardena Laboratories Assen.\nas §8"}, "healthy volunteers [3]": {"test_system": "healthy volunteers", "conditions": "for Basophil count / Eosinophil count / Lymphocyte count / Monocyte count / Neutrophil count: LS Means, IV LPS 1 ng/kg", "source_text": "as §1, §2, §9, §3, §4, §5, §6, §7\nBlood and other biological samples are collected for the following clinical laboratory tests: Haematology; Chemistry and electrolytes; Glucose; […] (after 4-hours fasting); […] (conjugated bilirubin is reported only when total bilirubin is outside the reference range); Virology; Urinalysis; Pregnancy (for women, serum pregnancy test is performed at screening and urine pregnancy test at other visits when scheduled, and if pregnancy is suspected during the study); Alcohol screening; and Urine drug screening."}, "[4]": {"conditions": "IV LPS, in words, all doses vs placebo"}, "[5]": {"conditions": "sevuparin 0.3/0.08 (loading bolus 0.3 mg/kg, then 0.08 mg/kg/h IV)"}, "[6]": {"conditions": "sevuparin 1.0/0.25 (loading 1 mg/kg, then 0.25 mg/kg/h IV)"}, "[7]": {"conditions": "sevuparin 3.0/0.75 (loading 3 mg/kg, then 0.75 mg/kg/h IV)"}}, "note": "Read-outs that look alike come from different tables or passages of the source.", "data": [{"substance": "sevuparin", "values": [{"measurement": "respiratory rate compared to placebo", "setting": "healthy volunteers [1]; FIG. 2, IV LPS, highest intravenously administered dose of sevuparin", "value": "improvement of the respiratory rate"}, {"measurement": "therapeutic impact on body temperature", "setting": "healthy volunteers [1]; [4]", "value": "did not have any therapeutic impact"}, {"measurement": "therapeutic impact on diastolic blood pressure", "setting": "healthy volunteers [1]; [4]", "value": "did not have any therapeutic impact"}, {"measurement": "therapeutic impact on feeling sick", "setting": "healthy volunteers [1]; [4]", "value": "did not have any therapeutic impact"}, {"measurement": "therapeutic impact on heart rate", "setting": "healthy volunteers [1]; [4]", "value": "did not have any therapeutic impact"}, {"measurement": "therapeutic impact on systolic blood pressure", "setting": "healthy volunteers [1]; [4]", "value": "did not have any therapeutic impact"}, {"measurement": "Body temperature", "setting": "healthy volunteers [1]; [5]", "value": 37.13}, {"measurement": "Diastolic blood pressure", "setting": "healthy volunteers [1]; [5]", "value": 63.5, "unit": "mm Hg"}, {"measurement": "Heart rate", "setting": "healthy volunteers [1]; [5]", "value": 69.7, "unit": "bpm"}, {"measurement": "NRS feeling sick", "setting": "healthy volunteers [1]; [5]", "value": 1.9}, {"measurement": "Systolic blood pressure", "setting": "healthy volunteers [1]; [5]", "value": 115.5, "unit": "mm Hg"}, {"measurement": "Body temperature", "setting": "healthy volunteers [1]; [6]", "value": 36.93}, {"measurement": "Diastolic blood pressure", "setting": "healthy volunteers [1]; [6]", "value": 63.9, "unit": "mm Hg"}, {"measurement": "Heart rate", "setting": "healthy volunteers [1]; [6]", "value": 71.1, "unit": "bpm"}, {"measurement": "NRS feeling sick", "setting": "healthy volunteers [1]; [6]", "value": 1.9}, {"measurement": "Systolic blood pressure", "setting": "healthy volunteers [1]; [6]", "value": 117.3, "unit": "mm Hg"}, {"measurement": "Body temperature", "setting": "healthy volunteers [1]; [7]", "value": 36.97}, {"measurement": "Diastolic blood pressure", "setting": "healthy volunteers [1]; [7]", "value": 62.7, "unit": "mm Hg"}, {"measurement": "Heart rate", "setting": "healthy volunteers [1]; [7]", "value": 70.5, "unit": "bpm"}, {"measurement": "NRS feeling sick", "setting": "healthy volunteers [1]; [7]", "value": 2.0}, {"measurement": "Systolic blood pressure", "setting": "healthy volunteers [1]; [7]", "value": 114.0, "unit": "mm Hg"}, {"measurement": "therapeutic effect on C-Reactive Protein (CRP)", "setting": "[2]; IV LPS, in words, vs placebo", "value": "no therapeutic effect"}, {"measurement": "therapeutic effect on the inflammatory biomarkers cytokines", "setting": "[2]; IV LPS, in words, vs placebo", "value": "no therapeutic effect"}, {"measurement": "C-Reactive Protein", "setting": "[2]; [5]", "value": 10.893, "unit": "mg/mL"}, {"measurement": "IL-6 in plasma", "setting": "[2]; [5]", "value": 19.587, "unit": "pg/mL"}, {"measurement": "IL-8 in plasma", "setting": "[2]; [5]", "value": 19.393, "unit": "pg/mL"}, {"measurement": "IL-10 in plasma", "setting": "[2]; [5]", "value": 8.125, "unit": "pg/mL"}, {"measurement": "TNF-α in plasma", "setting": "[2]; [5]", "value": 5.574, "unit": "pg/mL"}, {"measurement": "C-Reactive Protein", "setting": "[2]; [6]", "value": 11.080, "unit": "mg/mL"}, {"measurement": "IL-6 in plasma", "setting": "[2]; [6]", "value": 16.012, "unit": "pg/mL"}, {"measurement": "IL-8 in plasma", "setting": "[2]; [6]", "value": 19.843, "unit": "pg/mL"}, {"measurement": "IL-10 in plasma", "setting": "[2]; [6]", "value": 11.825, "unit": "pg/mL"}, {"measurement": "TNF-α in plasma", "setting": "[2]; [6]", "value": 5.415, "unit": "pg/mL"}, {"measurement": "C-Reactive Protein", "setting": "[2]; [7]", "value": 11.853, "unit": "mg/mL"}, {"measurement": "IL-6 in plasma", "setting": "[2]; [7]", "value": 13.712, "unit": "pg/mL"}, {"measurement": "IL-8 in plasma", "setting": "[2]; [7]", "value": 17.820, "unit": "pg/mL"}, {"measurement": "IL-10 in plasma", "setting": "[2]; [7]", "value": 7.527, "unit": "pg/mL"}, {"measurement": "TNF-α in plasma", "setting": "[2]; [7]", "value": 5.039, "unit": "pg/mL"}, {"measurement": "change in basophils compared to placebo control", "setting": "healthy volunteers [3]; IV LPS, in words", "value": "dose dependent pronounced increase"}, {"measurement": "change in neutrophils compared to placebo control", "setting": "healthy volunteers [3]; IV LPS, in words", "value": "dose dependent pronounced increase"}, {"measurement": "change in lymphocytes compared to placebo control", "setting": "healthy volunteers [3]; IV LPS, in words, FIG. 1", "value": "dose dependent pronounced increase"}, {"measurement": "Basophil count", "setting": "healthy volunteers [3]; [5]", "value": "0.029 E9/L"}, {"measurement": "Eosinophil count", "setting": "healthy volunteers [3]; [5]", "value": "0.114 E9/L"}, {"measurement": "Lymphocyte count", "setting": "healthy volunteers [3]; [5]", "value": "1.046 E9/L"}, {"measurement": "Monocyte count", "setting": "healthy volunteers [3]; [5]", "value": "0.335 E9/L"}, {"measurement": "Neutrophil count", "setting": "healthy volunteers [3]; [5]", "value": "6.650 E9/L"}, {"measurement": "Basophil count", "setting": "healthy volunteers [3]; [6]", "value": "0.032 E9/L"}, {"measurement": "Eosinophil count", "setting": "healthy volunteers [3]; [6]", "value": "0.105 E9/L"}, {"measurement": "Lymphocyte count", "setting": "healthy volunteers [3]; [6]", "value": "1.136 E9/L"}, {"measurement": "Monocyte count", "setting": "healthy volunteers [3]; [6]", "value": "0.339 E9/L"}, {"measurement": "Neutrophil count", "setting": "healthy volunteers [3]; [6]", "value": "5.788 E9/L"}, {"measurement": "Basophil count", "setting": "healthy volunteers [3]; [7]", "value": "0.039 E9/L"}, {"measurement": "Eosinophil count", "setting": "healthy volunteers [3]; [7]", "value": "0.117 E9/L"}, {"measurement": "Lymphocyte count", "setting": "healthy volunteers [3]; [7]", "value": "1.369 E9/L"}, {"measurement": "Monocyte count", "setting": "healthy volunteers [3]; [7]", "value": "0.376 E9/L"}, {"measurement": "Neutrophil count", "setting": "healthy volunteers [3]; [7]", "value": "7.073 E9/L"}]}]}
